# Source: publication PMC11019538, “Biophysics-Guided Lead Discovery of HBV Capsid Assembly Modifiers” (ACS Infectious Diseases, 2024)
# Read-outs that look alike come from different tables or passages of the source.
# Experiments:
# [1] = MTT cytotoxicity, Vero cells; format: cell-based, African green monkey; conditions: African green monkey
# Procedure: (§1) Human peripheral blood mononuclear (PBM), T lymphoblast CEM-CCRF (herein referred to as CEM cells), African green monkey kidney (Vero), or human liver carcinoma (HepG2) cells were tested via MTT assay using the CellTiter 96 Non-Radioactive Cell Proliferation (Promega) kit as previously described.[63]
# [2] = MTT cytotoxicity, CEM cells; format: cell-based, human; conditions: human
# Procedure: as §1
# [3] = MTT cytotoxicity, PBM cells; format: cell-based, human; conditions: human
# Procedure: as §1
# [4] = MTT cytotoxicity, HepG2 cells; format: cell-based, human; conditions: human
# Procedure: as §1
# [5] = molecular target: T1, Cp149 (Hepatitis B virus genotype D subtype adw, UniProt P03147); assay: Tryptophan fluorescence titration; format: binding; conditions: for tryptophan fluorescence quenching: 20 μM Cp149, compound up to 100 μM
# T1 construct: The N-terminal domain of Cp (Cp149) is sufficient for forming regular capsids; made in house; host or cells: E. coli BL21(DE3)
# Procedure: Each of the compounds was titrated into 100 μL of the protein solution to final concentrations of 0, 5, 10, 20, 50, and 100 μM in a clear bottom 96-well plate. […] Tryptophan fluorescence levels were measured by exciting the samples at 285 nm and measuring the emission at 340 nm with the Varioskan Flash (Thermo Fisher) plate reader. […] Fluorescence quenching was calculated by taking the difference of net fluorescence levels of each concentration and of the 0 μM sample. All the samples were run in triplicate, and the results were averaged. The dissociation constants (KD) were fitted by the one-site-specific binding model of GraphPad.[45]
# [6] = test system: HBV DNA replication in HepAD38 cells; assay: HBV DNA replication inhibition assay in HepAD38 cells (7 days, PCR of supernatant DNA); format: cell-based, hepatitis B virus; conditions: for inhibition at 200 µM: read-out: Anti-HBV activity in HepAD38 cells, % Inh. at 200 µM ± SD
# Procedure: HepAD38 cells were seeded at 50,000 cells/well in collagen-coated 96-well plates. […] The experiment lasted 7 days. On day 7, total DNA was purified from the supernatant using a commercially available kit (DNeasy 96 Blood & Tissue kit, Qiagen). The HBV DNA was amplified in a polymerase chain reaction assay using LightCycler 480 II (Roche), as previously described.[63] All samples were tested in duplicate.
# [7] = molecular target: T2, Cp149 capsid assembly (Hepatitis B virus genotype D subtype adw, UniProt P03147); assay: Transmission electron microscopy of assembled Cp149 products; format: biochemical; conditions: for % abnormal capsids, Trial 1 / % abnormal capsids, Trial 2 / effect on capsid morphology (TEM): 20 μM Cp149, 40 μM compound; for % abnormal capsids, Trial 1 / % abnormal capsids, Trial 2: 500 mM NaCl; for % abnormal capsids, Average: average of two trials
# T2 construct: The N-terminal domain of Cp (Cp149) is sufficient for forming regular capsids; made in house; host or cells: E. coli BL21(DE3)
# Procedure: The assembled samples of Cp149 were prepared as described in the Size Exclusion Chromatography section. Eight μL of each sample was added onto the 300 mesh Lacey Formvar carbon–copper grids (Ted Pella, Inc.) and allowed to sit for 1.5 min. The grid was then rinsed in 500 mL of deionized water for 10 s twice to rinse off the extra buffer on the grid. After drying, the sample was stained with 8 μL of 2% uranyl acetate for 1 min. After removal and drying of the uranyl acetate solution, the sample was imaged with a Hitachi HT7700 electron microscope at an accelerating voltage of 120 kV, at the IMat Materials Characterization Facility of Georgia Institute of Technology. The images underwent processing using ImageJ software. Initially, to minimize noise, a Gaussian blur filter was applied. These images were then converted into an 8 bit binary format for edge detection. ImageJ identified particles ranging in size from 800 to 2000 pixels. An example of a processed image can be seen in Figure S14. The circularity of each particle was calculated using the formula circularity = 4π × area × perimeter^–2. […] A total of four images, each containing a minimum of 100 capsids, were analyzed to determine the proportion of the abnormal capsids. The entire experiment was duplicated, and the outcomes from both sets were then averaged.
# [8] = test system: T lymphoblast CEM-CCRF (CEM) cells; assay: MTT cytotoxicity, CEM cells; format: cell-based, human
# Procedure: as §1
# [9] = test system: human peripheral blood mononuclear (PBM) cells; assay: MTT cytotoxicity, PBM cells; format: cell-based
# Procedure: as §1
# [10] = test system: African green monkey kidney (Vero) cells; assay: MTT cytotoxicity, Vero cells; format: cell-based; conditions: Vero cells
# Procedure: as §1
# [11] = test system: human liver carcinoma (HepG2) cells; assay: MTT cytotoxicity, HepG2 cells; format: cell-based; conditions: HepG2 cells
# Procedure: as §1
# [12] = in vitro
# [13] = MTS cytotoxicity (Table S4)
# [14] = test system: PBM, CEM, Vero and HepG2 cells; assay: MTT cytotoxicity, four cell lines taken together; format: cell-based
# Procedure: as §1
# [15] = T lymphoblast CEM-CCRF (CEM) cells
# [16] = peripheral blood mononuclear (PBM) cells
# [17] = Hepatitis B virus, HepAD38 cells, 10 μM, trial 1, read-out: % HBV DNA Inh. at 10 μM, trial 1
# [18] = Hepatitis B virus, HepAD38 cells, 10 μM, trial 2, read-out: % HBV DNA Inh. at 10 μM, trial 2
# [19] = Hepatitis B virus, HepAD38 cells, 10 µM, trial 3, read-out: % HBV DNA Inh. at 10 µM, trial 3
# [20] = Hepatitis B virus, HepAD38 cells, 10 µM, trial 4, read-out: % HBV DNA Inh. at 10 µM, trial 4
# [21] = Hepatitis B virus, HepAD38 cells, 10 μM, read-out: % inhibition in at least one of the trials
# [22] = Hepatitis B virus, HepAD38 cells, trial 1, read-out: EC50, trial 1
# [23] = Hepatitis B virus, HepAD38 cells, trial 2, read-out: EC50, trial 2
# [24] = Hepatitis B virus, HepAD38 cells, trial 3, read-out: EC50, trial 3
# [25] = Hepatitis B virus, HepAD38 cells, trial 4, read-out: EC50, trial 4
# [26] = Hepatitis B virus, HePAD38, additional testing, Table S4
# [27] = Hepatitis B virus, HePAD38, additional testing, Table S4, read-out: Anti-HBV activity in HepAD38 cells, EC50
# [28] = HepAD38 cells, trial 1, read-out: EC50, trial 1
# [29] = HepAD38 cells, trial 2, read-out: EC50, trial 2
# T2 sequence (P03147 1-149): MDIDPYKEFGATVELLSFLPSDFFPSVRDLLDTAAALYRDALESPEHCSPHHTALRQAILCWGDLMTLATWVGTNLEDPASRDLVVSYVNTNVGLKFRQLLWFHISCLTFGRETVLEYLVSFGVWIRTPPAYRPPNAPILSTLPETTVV
# T1 sequence (P03147 1-149): as above
SMILES,CC50 ([1]; Vero cells (kidney)),tryptophan fluorescence quenching [5],"CC50 [2, 15]","CC50 [3, 16]","inhibition at 10 µM [6, 17]","inhibition at 10 µM [6, 18]","inhibition at 10 µM [6, 19]","inhibition at 10 µM [6, 20]","inhibition at 10 µM [6, 21]","EC50 [6, 22]","EC50 [6, 23]","EC50 [6, 24]","EC50 [6, 25]","% abnormal capsids, Trial 1 [7]","% abnormal capsids, Trial 2 [7]",CC50 ([4]; HepG2 cells (liver carcinoma)),"% cytotoxicity at 100 µM (MTT), CEM cells [8]",percent cytotoxicity (cell growth inhibition) at 100 µM [9],effect on capsid morphology (TEM) [7],"% abnormal capsids, Average [7]",other results
"C[C@@H]1C[C@@H]([C@H](O)CC2CC(=O)NC(=O)C2)C(=O)[C@@H](C)C1 [Cycloheximide, reference compound]",–,–,–,–,–,–,–,–,–,–,–,–,–,–,–,–,–,–,–,–,CC50 ([1]; Vero cells): 0.2 µM; CC50 [2]: 0.2 µM; CC50 [3]: 0.9 µM; CC50 ([4]; HepG2 cells): 0.3 µM
O=C(OCc1ccc(-c2cnc3ccccc3n2)cc1)c1cccs1 [GT-32],44 µM,moderate fluorescence quenching,52 µM,85 µM,48%,< 1%,< 1%,< 1%,> 50%,≥ 10 µM,> 10 µM,> 10 µM,> 100 µM,76%,85%,59 µM,–,–,–,–,"Kd ([5]; 20 μM Cp149, single-site fit, read-out: dissociation constant (KD), estimated): 124 µM; Kd ([5]; one site specific binding model, Table S7, read-out: KD): 124 µM"
CCOC(=O)c1cc(-c2cc(C(=O)OCC)c3ccccc3n2)nc2ccccc12 [GT-33],76 µM,reproducible but modest fluorescence quenching,> 100 µM,> 100 µM,60%,37%,< 1%,< 1%,> 50%,< 10 µM,> 10 µM,> 10 µM,> 100 µM,31%,26%,86 µM,32%,5.6%,induced misdirected products,29%,–
Cc1nc(-c2c(-c3ccccc3)ncn2Cc2cccc3[nH]ccc23)c[nH]1 [GT-40],> 100 µM,No fluorescence quenching was observed,77 µM,> 100 µM,55%,50%,< 1%,< 1%,> 50%,< 10 µM,10 µM,> 10 µM,> 100 µM,8%,11%,> 100 µM,–,19%,no apparent effect,10%,"% cytotoxicity (MTT) at 100 µM [10]: 39%; KD ([5]; one site specific binding model, Table S7): No binding; percent cytotoxicity (MTT) at 100 µM, HepG2 [11]: 30%"
NCCCC(=O)NCc1nc(-c2cccc(F)c2)c(-c2ccccn2)[nH]1 [GT-45],66 µM,reproducible but modest fluorescence quenching,> 100 µM,> 100 µM,50%,49%,< 1%,< 1%,> 50%,≥ 10 µM,≥ 10 µM,> 10 µM,> 100 µM,40%,35%,> 100 µM,36%,41%,induced misdirected products,38%,"percent cytotoxicity (MTT) at 100 µM, HepG2 [11]: 41%"
O=C(NCc1ccc(-c2cccnc2)nc1)c1ccc2nccnc2c1 [GT-46],53 µM,moderate fluorescence quenching,38 µM,> 100 µM,49%,49%,2%,39%,> 50%,≥ 10 µM,≥ 10 µM,> 10 µM,> 100 µM,–,78%,82 µM,–,20%,–,74%,"IC50 [12]: > 200 µM; Kd ([5]; KD, one site specific binding model, Table S7): 263 µM; Kd ([5]; dissociation constant (KD), estimated, 20 μM Cp149, single-site fit): 263 µM; inhibition at 200 µM [6, 26]: 25.6 ± 2.5%; EC50 [6, 27]: > 200 µM; MTS cytotoxicity, % Inh. at 200 µM [13]: < 1%"
Cc1ccc2[nH]c(CCNc3nccc(-c4ccccn4)n3)nc2c1C [GT-47],> 100 µM,reproducible but modest fluorescence quenching,> 100 µM,> 100 µM,49%,49%,14%,< 1%,> 50%,≥ 10 µM,≥ 10 µM,> 10 µM,> 100 µM,28%,23%,18 µM,48%,16%,induced misdirected products,26%,"IC50 [12]: > 200 µM; % cytotoxicity (MTT) at 100 µM [10]: 31%; inhibition at 200 µM [6, 26]: < 1%; EC50 [6, 27]: > 200 µM; toxicity in at least one cell line tested [14]: 16 to 18 µM; MTS cytotoxicity, % Inh. at 200 µM [13]: < 1%"
Oc1c(C(Nc2ccccc2)c2ccccc2)ccc2cccnc12 (stereo not drawn) [GT-48],–,–,–,–,–,–,–,–,–,–,–,–,–,–,–,–,–,–,–,–,"CC50 [10]: 4.5 µM; CC50 [8]: 3.4 µM; CC50 [9]: 20 µM; % HBV DNA Inh. at 10 μM, trial 1 ([6]; HepAD38 cells, 10 μM, trial 1): < 1%; % HBV DNA Inh. at 10 μM, trial 2 ([6]; HepAD38 cells, 10 μM, trial 2): < 1%; EC50 [6, 28]: > 10 µM; EC50 [6, 29]: > 10 µM; CC50 [11]: 34 µM"
CCN(CC)CCCNc1cc(OC)c(Nc2ccccc2)c2cccnc12 [GT-49],–,–,–,–,–,–,–,–,–,–,–,–,–,–,–,–,–,–,–,–,"CC50 [10]: 16 µM; CC50 [8]: 9.4 µM; CC50 [9]: 27 µM; % HBV DNA Inh. at 10 μM, trial 1 ([6]; HepAD38 cells, 10 μM, trial 1): 45%; % HBV DNA Inh. at 10 μM, trial 2 ([6]; HepAD38 cells, 10 μM, trial 2): 45%; EC50 [6, 28]: > 10 µM; EC50 [6, 29]: > 10 µM; CC50 [11]: 17 µM"
